# Laboratory results from patent US7556928B2, “Method of screening a population of cells” (One Cell Systems, Inc., priority 2001, dated 2009).
# Experiments:
# [1] = system: CRL-8018 hybridoma cells; assay: Microdrop isotype capture and isolation assay (FACS); type: cell-based, mouse; conditions: 100 nM
# Description: Determination of Spontaneous and In-vitro Stimulated Switching Rate Using the Microdrop Isotype Capture and Isolation Assay Due to the low rate of isotype switching, analysis of large cell populations is necessary. —We, therefore, used a modified microdrop encapsulation protocol to isolate spontaneous or in-vitro induced rare IgG isotype switch variants among IgM secreting hybridoma cells. If the IgG concentration in supernatants was <0.1 μg/ml, we initially encapsulated multiple cells, followed by single cell encapsulation. In all cases, if,after in-vitro induction, the concentration of secreted IgG in supernatants was >0.1 μg/ml, one round of single cell encapsulation was sufficient for discriminating and sorting a small sub-population of positive cells.
# Two aliquots of 500 μl melted CelBioGel-3™ were vortexed with 25 μl of 10% Pluronic F-68 solution (Sigma-Aldrich), equilibrated at 37° C. for 3 min and then each was mixed with at least 2×10^6 hybridoma cells in […] of growth medium. These mixtures were added to 15 ml prewarmed CelMix™, covered and shaken vigorously 10 times to form an emulsion. Then the vial was attached to CellSys100™ Microdrop Maker (One Cell Systems, Inc) and the emulsion was mixed at 1800 rpm for 1 min at RT, then 1800 rpm for 1 min at 0° C., and subsequently 1000 rpm for 6 min at 0° C. Microdrops were washed three times in DPBS to remove oil and then incubated in 7 ml DPBS containing streptavidin (Sigma-Aldrich) at a final concentration of 10 μg/ml for 10 min at RT.
# After incubating with streptavidin, microdrops were washed three times by resuspending in 15 ml DPBS- followed by centrifugation at 1500 rpm for 5 min and then incubated with 10 μg/ml of biotinylated goat anti-mouse IgG for 10 min. Microdrops were again washed three times in DPBS- (as above) and resuspended in 20 ml of prewarmed growth medium and incubated at 37° C. for 2 hr for antibody secretion by the encapsulated cells. After incubation, microdrops were pelleted by centrifugation at 1500 rpm for 5 min, resuspended in cold DPBS- and labelled with 10 μg/ml of FITC-conjugated goat anti-mouse IgG-specific antibody (Jackson Immunochemicals). microdrops were washed twice in HBSS, resuspended in 2 ml of growth medium and sorted using a Coulter EPICS Elite; gating was set to sort only highly positive microdrops, based on controls.
# To determine spontaneous and in-vitro induced switching rate using the microdrop isotype capture and isolation assay, CRL-8018 hybridoma cells were plated out in two 75 cm^2 flasks or two 12-well plates (2 ml/well) at a density of 1×10^4 cells/ml in complete growth medium alone or in the presence of stimulators as described above. Cells were cultured at 37° C., 5% CO2 in a humid incubator for 5 days. Cell culture supemates were harvested and IgM and/or IgG production was tested using IsoStip™ or an ELISA-based mouse Isotyping kit (Zymed, Inc.). All cells from 75 cm2 flasks and from wells positive for IgG production were pooled, resuspended in 100-200 μl of growth medium and encapsulated in microdrops. The first round of isotype capture and isolation enrichment with multiple occupied microdrops was then performed, as described above. After sorted cells were propagated in culture for 5 days, the second round of the assay was performed usingmicrodrops occupied by single cells. After isolation by FACS, IgG secretors were plated out in 96-well plates, 1 cell/well. The number of recovered clones was estimated using supernatant ELISA after incubating plates at 37° C. in 5% C02 for 14 days.
# Fluorescence Activated Cell Sorting Cell sorting was performed using an EPICS Elite™ Coulter Corp. with a 100 μm flow nozzle. FITC-labelled detection regents were excited by the 488 nm spectral line of an argon laser. Green (FITC) fluorescence was collected using a 525 nm, long pass band filter. For statistical analysis, EPICS Elite 4.02 software was used. […]
# [2] = system: CRL-8018 hybridoma cells; assay: In-vitro induced IgG isotype switching by sequential sublining and mIgG ELISA; type: cell-based, mouse; conditions: retinoic acid 100 nM
# Description: Induction of Class-Switching Using CRL-8018 cell line, we investigated and evaluated methods of increasing the number class-switching events in-vitro. Cells were plated in 75 cm^2 flasks or in 12-well plates at 1×10^4/ml and incubated for 7 days in complete growth medium supplemented with:
# Determination of In-vitro Induced Switching Rate Using Sequential Sublining CRL-8018 cells were resuspended in growth medium supplemented with mitogen(s)/growth factors as described above and plated out in ten 96-well plates at a density of 1,000 cells/well. Cells were cultured at 37° C., 5% CO2 in a humid incubator for 5 days. Cell culture supernates were collected and an isotype-specific ELISA performed. Briefly, 96-well flexible assay plates, previously coated with 10μg/plate of purified goat anti-mouse IgG (Jackson Immunochemicals) in 20 mM NaHCO3 (Sigma-Aldrich), 50 μl/well, were incubated overnight at 4° C. and then washed 3 times in Dulbecco's phosphate buffered saline without calcium and magnesium/0.2% Tween 20 (DPBS-/Tween) (Sigma-Aldrich). Non-specific protein binding sites were blocked using PBS+1% BSA, 200 μl/well for 2 hr at room temperature (RT).
# 100 μl of each of the culture supemates were harvested and incubated in the anti-IgG coated plates for 2 hr at RT. The assay plates were washed three times in DPBS-/Tween, and 50 μl of HRP conjugated goat anti-mouse IgG (Jackson Immunochemicals) diluted 1:100 in PBS/Tween were applied to each well and incubated at RT for 1 hr. Plates were washed again and developed using 100 μl of TMB substrate solution (Sigma-Aldrich). The reaction was halted with 0.5M H2SO4 (Sigma-Aldrich) and plates were read at […] on an ELx800 ELISA plate reader (Bio-TEK Instruments, Inc.). Five rounds of the above procedure were performed to determine the switching rate.
# 11. Detection of In-vitro Induced IgG Isotype Switching Rate Among CRL-8018 Hybridoma Cells Using Sequennal Sublining Experiments were performed with CRL-8018 hybridoma cell line as described in Materials and Methods. […] Sequental sublining was performed as described in Materials and Methods. 1×10^6 cells were resuspended in 200 ml of growth medium supplemented with 100 nM of retinoic acid (5×10^3/ml) and plated out in ten 96-well plates at a density of 1,000 cells/well (0.2 ml/well). After 5 days of incubation at 37° C. and 5% CO2, mIgG isotype specific ELISA was performed with cell culture supemates. Cells from two positive wells were plated out in 96-well plates at a density of 100 cells/well (25 plates). Five rounds of the above procedure were performed: 1,000 cells/well, 100 cells/well, 10 cells/well, and 1 cell/well. […] About two months, 110 plates and 10,560 supemates for mIgG isotype specific ELISA were required for the assay.
# [3] = after first round with 25 × 10^6 cells
# [4] = second round, highest-fluorescence sub-population
smiles,measurement,setting,value
CC1=C(/C=C/C(C)=C/C=C/C(C)=C/C(=O)O)C(C)(C)CCC1 [retinoic acid],"First round of FACS, FITC MFI","[1]; 2 × 10^6 cells, single cell encapsulation",320.65
same,"First round of FACS, % positive events detected","[1]; 2 × 10^6 cells, single cell encapsulation, 1 cell per GMD",0.15%
same,"First round of FACS, FITC MFI","[1]; 25 × 10^6 cells, multiple cell encapsulation",17.93
same,"First round of FACS, % positive events detected","[1]; 25 × 10^6 cells, multiple cell encapsulation, 2.5 cells per GMD",0.09%
same,"Sequential second round of FACS of single occupied GMDs, % positive events detected",[1]; [3],36.4%
same,"Sequential second round of FACS of single occupied GMDs, FITC MFI",[1]; [3],11.3
same,Sorted GMDs % pos,[1]; [4],2.9%
same,Sorted GMDs MFI,[1]; [4],75.2
same,rate of isotype switching,[2],~0.0006%
same,% positive wells,"[2]; 1 cell/well, of 2400 wells",91.2%
same,% positive wells,"[2]; 10 cells/well, of 2400 wells",23.5%
same,% positive wells,"[2]; 100 cells/well, of 2400 wells",12.4%
same,% positive wells,"[2]; 1,000 cells/well, of 960 wells",0.6%
same,mIgG positive wells,[2]; plating density 1 cell/well,2188
same,mIgG positive wells,[2]; plating density 10 cells/well,564
same,mIgG positive wells,[2]; plating density 100 cells/well,298
same,mIgG positive wells,"[2]; plating density 1,000 cells/well",6
